Values quoted from earlier work as cited in US10544223B2, “Combination therapy with an anti-axl antibody-drug conjugate” (ADC THERAPEUTICS SA, priority 2017, dated 2020).

Columns and labels:
AXL = settings: incubation of tumor cells with MEKi
advanced melanoma = settings: phase III trials, advanced melanoma patients
DNA repair genes = settings: inhibition of AXL

Row | Compound | accumulation of AXL on the membrane of tumor cells (AXL) | efficiency of the homologous recombination repair machinery (DNA repair genes) | expression of DNA repair genes (DNA repair genes) | further results
1 | O=C(NOC[C@H](O)CO)c1ccc(F)c(F)c1Nc1ccc(I)cc1F [PD325901] | induced a strong accumulation of AXL |  |  | 
2 | tremelimumab: anti-CTLA4 antibody |  |  |  | overall survival compared to the standard of care (temozolomide or dacarbazine) (advanced melanoma): did not significantly increase the overall survival
3 | Fludarabine |  |  |  | ERCC1 transcription (ERCC1 transcription): suppress ERCC1 transcription
4 | Nc1nc(Nc2ccc3c(c2)CC[C@@H](N2CCCC2)CC3)nn1-c1cc2c(nn1)-c1ccccc1CCC2 [BGB324] |  | diminish the efficiency of the homologous recombination repair machinery | decrease expression of DNA repair genes | 
5 | N#CC(=C(/N)Sc1ccccc1N)/C(C#N)=C(\N)Sc1ccccc1N [U0126] | induced a strong accumulation of AXL |  |  | 
6 | CN1CCN(Cc2ccc(Nc3ncc(Cl)c(Nc4ccccc4S(=O)(=O)N(C)C)n3)cc2)CC1 [TP0903] |  | diminish the efficiency of the homologous recombination repair machinery | decrease expression of DNA repair genes | 
